# Earlier results, collected in patent publication US20230120480A1, “METHODS FOR REMOVING CONTAMINANTS FROM PLANT-DERIVED PHARMACEUTICALS” (priority 2021, published 2023).
# Conditions: not given
row,Compound,Water Soluble?
1,CCCCCc1cc(O)c2c(c1)OC(C)(CCC=C(C)C)C=C2 (centres unmarked) [Cannabichromene],No
2,C=C(C)[C@@H]1CCC(C)=C[C@H]1c1c(O)cc(C)cc1O [Cannabidiorcol],No
3,CCCc1cc(O)c(C/C=C(\C)CCC=C(C)C)c(O)c1C(=O)O [Cannabigerovarinic acid],Yes
4,CCc1cc(O)c2c(c1)OC(C)(C)c1ccc(C)cc1-2 [Cannabinol-C2],No
5,CCCc1cc(O)c(C/C=C(\C)CCC=C(C)C)c(O)c1 [Cannabigerovarin],No
6,CCCCCc1cc(O)c(C/C=C(\C)CCC=C(C)C)c(O)c1C(=O)O [Cannabigerolic acid],Yes
7,C=C(C)c1ccc(C)cc1-c1c(O)cc(CCCCC)cc1O [Cannabinodiol],No
8,C=C(C)[C@@H]1CCC(C)=C[C@H]1c1c(O)cc(CCC)c(C(=O)O)c1O [Cannabidivarinic acid],Yes
9,CCCCCc1cc(O)c2c(c1C(=O)O)OC(C)(C)[C@@H]1CCC(C)=C[C@@H]21 [Delta-9-tetrahydrocannabinolic acid B],Yes
10,CCCCc1cc(O)c2c(c1)OC(C)(C)c1ccc(C)cc1-2 [Cannabinol-C4],No
11,CCCc1cc2c(c(O)c1C(=O)O)[C@@H]1C=C(C)CC[C@H]1C(C)(C)O2 [Delta-9-tetrahydrocannabivarinic acid],Yes
12,CCCc1cc(O)c2c(c1)OC(C)(CCC=C(C)C)C=C2 (centres unmarked) [Cannabichromevarin],No
13,CCCCc1cc(O)c2c(c1)OC(C)(C)C1CCC(C)=CC21 (centres unmarked) [Delta-9-tetrahydrocannabinol-C4],No
14,CCCCCc1cc(O)c2c(c1)OC(C)(C)C1=C2C(=O)C(C)CC1 (centres unmarked) [10-Oxo-delta-6a-tetrahydrocannabinol],No
15,CCCCCc1cc(O)c2c(c1)OC(C)(C)C1CC=C(C)CC21 (centres unmarked) [Delta-8-tetrahydrocannabinol],No
16,CCCc1cc(O)c2c(c1)OC(C)(C)c1ccc(C)cc1-2 [Cannabivarin],No
17,Cannbicitran,No

row,Compound,Water Soluble?
1,CCCCCc1cc(O)c2c(c1)OC(C)(C)C1=C2C(OCC)C(C)(O)CC1 (centres unmarked) [10-Ethoxy-9-hydroxy-delta-6a-tetrahydrocannabinol],No
2,"C=C(C)[C@@H]1CCC(C)=C[C@H]1c1c(O)cc(CCCCC)cc1O [Cannabidiol, reference compound]",No
3,CCCCCc1cc2c(c(O)c1C(=O)O)-c1cc(C)ccc1C(C)(C)O2 [Cannabinolic acid],Yes
4,CCCc1cc2c(c(O)c1C(=O)O)C=CC(C)(CCC=C(C)C)O2 (centres unmarked) [Cannabichromevarinic acid],No
5,CCCCCc1cc2c(c(O)c1C(=O)O)C1C3C(CCC3(C)O2)C1(C)C (centres unmarked) [Cannabicyclolic acid],Yes
6,CCCCCc1cc(OC)c(C/C=C(\C)CCC=C(C)C)c(O)c1C(=O)O [Cannabigerolic acid monomethylether],Yes
7,C=C(C)[C@@H]1CC[C@](C)(O)[C@H]2Oc3cc(CCCCC)cc(O)c3[C@@H]12 [Cannabielsoin],No
8,CCCCCc1cc(O)c2c(c1)OC(C)(C)C1=C2C(O)C(C)(O)CC1 (centres unmarked) [Cannabitriol],No
9,CCCCCc1cc(O)c2c(c1)OC(C)(C)[C@H]1CCC(C)=C[C@@H]21 (relative stereo) [Delta-9-cis-tetrahydrocannabinol],No
10,CCCCCc1cc(O)c(C/C=C(\C)CCC=C(C)C)c(OC)c1 [Cannabigerol monomethylether],No
11,CCCCCc1cc2c(c(O)c1C(=O)O)C=CC(C)(CCC=C(C)C)O2 (centres unmarked) [Cannabichromenic acid],Yes
12,Cannabifuran,No
13,CC1=CC2c3c(O)cc(C)cc3OC(C)(C)C2CC1 (centres unmarked) [Delta-9-tetrahydrocannabiorcol],No
14,CCCCCc1cc(OC)c2c(c1)OC(C)(C)c1ccc(C)cc1-2 [Cannabinol methylether],No
15,CCCCCc1cc(O)c2c(c1)OC1(C)CCC3C1C2C3(C)C (centres unmarked) [Cannabicyclol],No
16,C=C(C)[C@@H]1CC[C@](C)(O)[C@H]2Oc3cc(CCCCC)c(C(=O)O)c(O)c3[C@@H]12 [Cannabielsoin acid A],No
17,"CCCCCc1cc(O)c2c(c1)OC(C)(C)[C@@H]1CCC(C)=C[C@@H]21 [Delta-9-tetrahydrocannabinol, reference compound]",No

# Conditions: permissible limit of the pesticide in Cannabis, State of Oregon
row,Compound,Action Level (ppm)
1,N#C/N=C1\SCCN1Cc1ccc(Cl)nc1 [Thiacloprid],0.2
2,CNC(=O)ON=C(C)SC [Methomyl],0.4
3,CC1C(c2ccc(Cl)cc2)SC(=O)N1C(=O)NC1CCCCC1 (centres unmarked) [Hexythiazox],1
4,Pyrethrins,1
5,CCOc1cc(C(C)(C)C)ccc1C1COC(c2c(F)cccc2F)=N1 (centres unmarked) [Etoxazole],0.2
6,CNC(=O)Oc1cc(C)c(SC)c(C)c1 [Methiocarb],0.2
7,Cc1nn(C)c(Oc2ccccc2)c1/C=N/OCc1ccc(C(=O)OC(C)(C)C)cc1 [Fenpyroximate],0.4
8,CC(C)(C)C(O)C(Cc1ccc(Cl)cc1)n1cncn1 (centres unmarked) [Paclobutrazol],0.4
9,N#CCNC(=O)c1cnccc1C(F)(F)F [Flonicamid],1
10,CNC(=O)c1cc(Cl)cc(C)c1NC(=O)c1cc(Br)nn1-c1ncccc1Cl [Chlorantranili- prole],0.2
11,CCCCCCCCCCCCC1=C(OC(C)=O)C(=O)c2ccccc2C1=O [Acequinocyl],2
12,N#Cc1c[nH]cc1-c1cccc2c1OC(F)(F)O2 [Fludioxonil],0.4
13,CCCN(CC)CC1COC2(CCC(C(C)(C)C)CC2)O1 (centres unmarked) [Spiroxamine],0.4
14,COP(=O)(OC)OC=C(Cl)Cl [DDVP (Dichlorvos)],0.1
15,CO/N=C(/C(=O)OC)c1ccccc1COc1ccccc1C [Kresoxim- methyl],0.4
16,CN1COCN(Cc2cnc(Cl)s2)/C1=N\[N+](=O)[O-] [Thiamethoxam],0.2
17,Spinosad,0.2
18,COP(=S)(OC)SCN1C(=O)c2ccccc2C1=O [Phosmet],0.2
19,C/C(=N\C#N)N(C)Cc1ccc(Cl)nc1 [Acetamiprid],0.2
20,CCOC(=O)OC1=C(c2cc(C)ccc2C)C(=O)N[C@]12CC[C@@H](OC)CC2 [Spirotetramat],0.2
21,CC1(C)C(C=C(Cl)Cl)C1C(=O)OC(C#N)c1ccc(F)c(Oc2ccccc2)c1 (centres unmarked) [Cyfluthrin],1
22,CO/C=C(/C(=O)OC)c1ccccc1Oc1cc(Oc2ccccc2C#N)ncn1 [Azoxystrobin],0.2
23,CC(C)(C)c1ccc(CSc2cnn(C(C)(C)C)c(=O)c2Cl)cc1 [Pyridaben],0.2
24,Cc1cc(C)c(C2=C(OC(=O)CC(C)(C)C)C3(CCCC3)OC2=O)c(C)c1 [Spiromesifen],0.2
25,CCCCC(C#N)(Cn1cncn1)c1ccc(Cl)cc1 (centres unmarked) [Myclobutanil],0.2
26,CC(C)(C)C(O)(CCc1ccc(Cl)cc1)Cn1cncn1 (centres unmarked) [Tebuconazole],0.4

row,Compound,Action Level (ppm)
1,CC1(C)C(C=C(Cl)Cl)C1C(=O)OCc1cccc(Oc2ccccc2)c1 (centres unmarked) [Permethrins],0.2
2,CNC(=O)Oc1ccccc1OC(C)C [Propoxur],0.2
3,COCC(=O)N(c1c(C)cccc1C)C(C)C(=O)OC (centres unmarked) [Metalaxyl],0.2
4,CCOCn1c(-c2ccc(Cl)cc2)c(C#N)c(Br)c1C(F)(F)F [Chlorfenapyr],1
5,CCOc1ccc(C(C)(C)COCc2cccc(Oc3ccccc3)c2)cc1 [Etofenprox],0.4
6,CNC(=O)CSP(=S)(OC)OC [Dimethoate],0.2
7,Cc1c(COC(=O)[C@@H]2[C@H](/C=C(\Cl)C(F)(F)F)C2(C)C)cccc1-c1ccccc1 (racemic) [Bifenthrin],0.2
8,N#Cc1nn(-c2c(Cl)cc(C(F)(F)F)cc2Cl)c(N)c1[S+]([O-])C(F)(F)F (centres unmarked) [Fipronil],0.4
9,CNC(=O)O/N=C(\SC)C(=O)N(C)C [Oxamyl],1
10,CNC(=O)Oc1cccc2c1OC(C)(C)C2 [Carbofuran],0.2
11,COP(=O)(OC)OC(Br)C(Cl)(Cl)Br (centres unmarked) [Naled],0.5
12,CNC(=O)Oc1cccc2ccccc12 [Carbaryl],0.2
13,CO/N=C(/C(=O)OC)c1ccccc1CO/N=C(\C)c1cccc(C(F)(F)F)c1 [Trifloxystrobin],0.2
14,Abamectin,0.5
15,CNC(=O)O/N=C/C(C)(C)SC [Aldicarb],0.4
16,O=[N+]([O-])NC1=NCCN1Cc1ccc(Cl)nc1 [Imidacloprid],0.4
17,COP(=O)(NC(C)=O)SC (centres unmarked) [Acephate],0.4
18,CCCC1COC(Cn2cncn2)(c2ccc(Cl)cc2Cl)O1 (centres unmarked) [Propiconazole],0.4
19,CCOP(=S)(OCC)Oc1cc(C)nc(C(C)C)n1 [Diazinon],0.2
20,CCOC(=O)NCCOc1ccc(Oc2ccccc2)cc1 [Fenoxycarb],0.2
21,C=CCOC(Cn1ccnc1)c1ccc(Cl)cc1Cl (centres unmarked) [Imazalil],0.2
22,O=C(Nc1ccccc1-c1ccc(Cl)cc1)c1cccnc1Cl [Boscalid],0.4
23,C#CCC1=C(C)C(OC(=O)[C@@H]2[C@@H](C=C(C)C)C2(C)C)CC1=O (some centres unmarked) [Prallethrin],0.2
24,COc1ccc(-c2ccccc2)cc1NNC(=O)OC(C)C [Bifenazate],0.2
25,CCOC(=O)CC(SP(=S)(OC)OC)C(=O)OCC (centres unmarked) [Malathion],0.2
26,CCCCC(CC)CN1C(=O)C2C3C=CC(C3)C2C1=O (centres unmarked) [MGK-264],0.2
